These results are taken from ChEMBL document CHEMBL3621076, “Synthesis and Characterization in Vitro and in Vivo of (l)-(Trimethylsilyl)alanine Containing Neurotensin Analogues” (J Med Chem, 2015).

Calls of active or inactive are those of the source. No cut-off for these calls is given here. Square brackets hold non-standard residues; d marks the D form. Peptide text beside a SMILES is read from it. Pro(4-sila,4,4-Me2) = C[Si]1(C)CN[C@H](C(=O)O)C1; Ala(SiMe3) = C[Si](C)(C)C[C@H](N)C(=O)O; NMeR = CN[C@@H](CCCNC(=N)N)C(=O)O; hLys = NCCCCC[C@H](N)C(=O)O

Data set [1] can be described thus: Half life in rat plasma at 0.156 mM by UPLC/MS method. It counts as ADME, cell-free.
Data set [2] concerns Rattus norvegicus. Description: Reduction in arterial blood pressure in Sprague-Dawley rat at 0.1 mg/kg, iv measured over 4 mins. It counts as functional.
The test system of data set [3] is Rattus norvegicus. Description: Analgesic activity in Sprague-Dawley rat model of formalin-induced persistent tonic pain model assessed as reduction in weighted pain score during inflammatory phase at 30 ug/kg, it by formalin test. Format: functional, organism-based.
The subject of data set [4] is Rattus norvegicus. As to the kind of experiment: Analgesic activity in Sprague-Dawley rat assessed as maximal possible effect for reduction in sensitivity to heat stimulation at 30 ug/kg, it measured every 10 mins for up to 1 hr post dose by tail immersion test. Also noted: scale not given: the % may be the effect or the level left. Format: functional.
Data set [5] has as its system Rattus norvegicus. Description: Reduction in arterial blood pressure in Sprague-Dawley rat assessed as sustained and pronounced hypotensive phase at 0.1 mg/kg, iv measured over 4 mins. It counts as functional, organism-based.
Data set [6] has as its system Rattus norvegicus. Description: Analgesic activity in Sprague-Dawley rat assessed as increase in response latency to thermal noxious stimulus at 30 ug/kg, it measured every 10 mins for up to 1 hr post dose by tail immersion test. It counts as functional, organism-based.
Data set [7] concerns Rattus norvegicus. Description: Analgesic activity in Sprague-Dawley rat model of formalin-induced persistent tonic pain model assessed as reduction in weighted pain score during acute phase at 30 ug/kg, it by formalin test. Format: functional, organism-based.
Data set [8] has as its target T1, Neurotensin receptor type 1 (Homo sapiens, UniProt P30989). Description: Displacement of [125I]-Tyr3-NT from human NTS1 receptor expressed in CHOK1 cell membranes incubated for 30 mins by gamma-counting based competitive radioligand binding assay. Also noted: species or system CHO-K1.
Data set [9] deals with Rattus norvegicus. Description: Reduction in arterial blood pressure in Sprague-Dawley rat assessed as hypotensive effect during pressor phase returning to baseline saline values within <1 mins at 0.1 mg/kg, iv measured over 4 mins. It counts as functional, organism-based.
The target in data set [10] is Neurotensin receptor type 2 (Homo sapiens, UniProt O95665). Description: Displacement of [125I]-Tyr3-NT from human NTS2 receptor expressed in 1321N1 cell membranes incubated for 30 mins by gamma-counting based competitive radioligand binding assay. A general note: Loss of bound radioactivity is the signal in a displacement assay; it reports binding, not function.
Data set [11] deals with T1, Neurotensin receptor type 1. As to the kind of experiment: Agonist activity at human NTS1 receptor expressed in CHOK1 cells co-expressing hNTS1-GFP10/RlucII-beta-arrestin 2 assessed as beta-arrestin2 recruitment incubated for 15 mins by BRET assay. It counts as cell-based, CHO-K1.
Data set [12] concerns the target Neurotensin receptor type 1 (Rattus norvegicus, UniProt P20789). As to the kind of experiment: Agonist activity at […] NTS1 in Sprague-Dawley rat ileum assessed as inhibition of carbachol-induced contraction. It counts as tissue-based.
For data set [13], the target named is T1, Neurotensin receptor type 1. Description: Agonist activity at human NTS1 receptor expressed in CHOK1 cells co-expressing Galphaq-RlucII(121)/Gbeta1/GFP10-Ggamma1 assessed as Galpha-q stimulation incubated for 15 mins by BRET assay. Format: cell-based, CHO-K1. A general note: Bioluminescence resonance energy transfer reports proximity on the nanometre scale.

Data set [14] is filed under the species Rattus norvegicus. As to the kind of experiment: Analgesic activity in rat by tail flick test. It counts as functional. (In general: Thermal pain tests record how soon the animal reacts.)

Chain of Neurotensin receptor type 1 (Rattus norvegicus, UniProt P20789) (P20789 whole entry): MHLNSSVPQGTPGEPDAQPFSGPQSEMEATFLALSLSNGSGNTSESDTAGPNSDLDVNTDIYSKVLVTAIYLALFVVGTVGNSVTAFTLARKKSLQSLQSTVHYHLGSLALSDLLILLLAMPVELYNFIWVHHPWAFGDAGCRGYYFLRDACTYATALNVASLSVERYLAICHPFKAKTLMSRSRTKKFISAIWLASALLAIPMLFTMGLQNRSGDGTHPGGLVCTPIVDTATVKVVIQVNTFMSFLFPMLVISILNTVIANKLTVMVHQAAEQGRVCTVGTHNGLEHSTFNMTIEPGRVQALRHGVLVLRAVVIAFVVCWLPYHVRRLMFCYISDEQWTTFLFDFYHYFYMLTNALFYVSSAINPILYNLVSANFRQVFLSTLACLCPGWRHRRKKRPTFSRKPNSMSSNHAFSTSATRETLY
T1 sequence (P30989 whole entry): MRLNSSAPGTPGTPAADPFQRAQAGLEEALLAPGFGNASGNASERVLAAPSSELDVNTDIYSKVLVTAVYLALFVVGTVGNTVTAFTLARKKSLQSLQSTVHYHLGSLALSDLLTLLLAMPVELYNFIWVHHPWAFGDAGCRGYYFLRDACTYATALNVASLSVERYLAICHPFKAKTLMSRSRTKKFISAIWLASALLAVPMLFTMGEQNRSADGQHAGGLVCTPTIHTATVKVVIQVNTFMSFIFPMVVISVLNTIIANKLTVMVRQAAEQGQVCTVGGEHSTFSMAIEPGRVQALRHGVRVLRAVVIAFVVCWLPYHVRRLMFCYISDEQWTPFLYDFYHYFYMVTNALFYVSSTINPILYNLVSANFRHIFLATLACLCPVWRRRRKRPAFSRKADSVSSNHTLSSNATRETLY
Chain of Neurotensin receptor type 2 (O95665 whole entry): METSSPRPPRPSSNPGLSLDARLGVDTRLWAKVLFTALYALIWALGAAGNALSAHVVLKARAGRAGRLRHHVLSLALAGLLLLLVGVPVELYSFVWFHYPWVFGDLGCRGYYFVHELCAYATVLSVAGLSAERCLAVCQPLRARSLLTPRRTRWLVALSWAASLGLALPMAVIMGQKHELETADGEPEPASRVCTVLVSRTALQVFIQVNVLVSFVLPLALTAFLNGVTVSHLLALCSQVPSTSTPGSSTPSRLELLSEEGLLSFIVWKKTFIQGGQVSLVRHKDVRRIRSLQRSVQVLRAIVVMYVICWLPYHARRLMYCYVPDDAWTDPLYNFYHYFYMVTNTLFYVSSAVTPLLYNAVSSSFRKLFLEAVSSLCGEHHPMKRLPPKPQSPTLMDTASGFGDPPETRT

The term half-life denotes the time in which the quantity being followed falls by half. The molecule `CC[C@H](C)[C@H](NC(=O)[C@H](Cc1ccc(O)cc1)NC(=O)[C@@H]1CCCN1C(=O)[C@H](CCCNC(=N)N)NC(=O)[C@@H](N)CCCNC(=N)N)C(=O)N[C@@H](CC(C)C)C(=O)O` gave a half-life at 156 µM in [1] of 1.95 min. The same molecule showed an Activity in the data set with Rattus norvegicus [2] of 30 mmHg.
A word on the IC50: it is the concentration that gives 50% inhibition. The EC50 is the concentration giving half of the maximal effect. Turning to `CC[C@H](C)[C@H](NC(=O)[C@H](Cc1ccc(O)cc1)NC(=O)[C@@H]1CCCN1C(=O)[C@H](CCCCN)NC(=O)[C@@H](N)CCCCN)C(=O)N[C@@H](C[Si](C)(C)C)C(=O)O` (H-KKPYI[Ala(SiMe3)]-OH), the result in the data set on Rattus norvegicus [3], in the data set with Rattus norvegicus [5], with Rattus norvegicus [6], with Rattus norvegicus [7], in the data set with Rattus norvegicus [9] and in the data set with Rattus norvegicus [2] was Active. This molecule registered a half-life at 156 µM in [1] of 1.33 min. In addition, the Activity with Rattus norvegicus [4] is 40%. Moreover, the IC50 turned out to be 0.02 nM in [8] and 0.26 nM in data set [10]. For the same molecule, the EC50 in [11] worked out at 1.49 nM; in data set [12], 1.41 nM; in data set [13], 1.51 nM.
The molecule `CC(C)C[C@H](NC(=O)[C@H](C[Si](C)(C)C)NC(=O)[C@H](Cc1ccc(O)cc1)NC(=O)[C@@H]1CCCN1C(=O)[C@H](CCCCN)NC(=O)[C@@H](N)CCCCN)C(=O)O` (H-KKPY[Ala(SiMe3)]L-OH) returned a half-life at 156 µM in data set [1] of 2.4 min. For the same molecule, the IC50 in data set [8] is 93.8 nM; in data set [10], 405 nM. Moreover, the EC50 was 26.6 nM in data set [11], over 10000 nM in data set [12] and 169 nM in data set [13].
In data set [1], `C[Si](C)(C)C[C@H](NC(=O)[C@H](C[Si](C)(C)C)NC(=O)[C@H](Cc1ccc(O)cc1)NC(=O)[C@@H]1CCCN1C(=O)[C@H](CCCCN)NC(=O)[C@@H](N)CCCCN)C(=O)O` (H-KKPY[Ala(SiMe3)][Ala(SiMe3)]-OH) displayed a half-life at 156 µM of 2.83 min. The values for the IC50 in data set [8] and in [10] were 15.4 nM and 28.9 nM, respectively. Also, the EC50 in data set [11] came out at 0.34 nM; in data set [12], 22.5 nM; in data set [13] it was 11 nM.
Molecule `CN[C@@H](CCCNC(=N)N)C(=O)N[C@@H](CCCCN)C(=O)N1CCC[C@H]1C(=O)N[C@@H](Cc1ccc(O)cc1)C(=O)N[C@@H](C[Si](C)(C)C)C(=O)N[C@@H](CC(C)C)C(=O)O` (H-[NMeR]KPY[Ala(SiMe3)]L-OH) displayed a half-life at 156 µM in [1] of over 120 min. For the same molecule, the results for the half-inhibitory concentration (IC50) in data set [8] and in data set [10] were 246 nM and 29.7 nM, respectively. Further, the EC50 in data set [11] is 4.19 nM; in data set [12] it was over 10000 nM; in data set [13], 204 nM.
The molecule `CC(C)C[C@H](NC(=O)[C@H](C[Si](C)(C)C)NC(=O)[C@H](Cc1ccc(O)cc1)NC(=O)[C@@H]1C[Si](C)(C)CN1C(=O)[C@H](CCCCN)NC(=O)[C@@H](N)CCCCCN)C(=O)O` (H-[hLys]K[Pro(4-sila,4,4-Me2)]Y[Ala(SiMe3)]L-OH) returned a half-life at 156 µM in data set [1] of 3.52 min. The IC50 was 968 nM in [8] and 1420 nM in data set [10]. Further, the EC50 in data set [11] is over 1000 nM; in data set [12], over 10000 nM; in data set [13], over 10000 nM.
`CO[C@@]12CC[C@@]3(C[C@@H]1[C@](C)(O)C(C)(C)C)[C@H]1Cc4ccc(O)c5c4[C@@]3(CCN1CC1CC1)[C@H]2O5` [BUPRENORPHINE] registered an ED50 in the data set listed under Rattus norvegicus [14] of 4 nmol.
The same measure, in the same setting: the figure for `CN1CC[C@]23c4c5ccc(O)c4O[C@H]2C(=O)CC[C@H]3[C@H]1C5` [HYDROMORPHONE] is 78 nmol.
The same measure, in the same setting: with `CN1CC[C@]23c4c5ccc(O)c4O[C@H]2[C@@H](O)C=C[C@H]3[C@H]1C5` [MORPHINE] the figure was 7.4 nmol.
